Test systems include KM12 colon; SK-MEL-28 melanoma; RXF 393 renal; HT29 colon; SW-620 colon; ACHN renal; HS 578T breast; TK-10 renal; OVCAR-8 ovarian; SK-MEL-2 melanoma.
Holding throughout (assay): growth of human tumour cells (NCI), 48 h

Where “and” joins values, the source holds several entries; their conditions need not be identical. Equal entries are not always repeated.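 The compound was tested at five concentrations on cells cultured in 96-well plates, with a 48-hour exposure period. GI50 marks 50% less growth. TGI: total growth inhibition.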 Some results are limits rather than exact numbers.

As to `C/C(=C\CNc1ncnc2nc(Cl)[nH]c12)CO`, the TGI in the assay with KM12 colon, in the assay with SK-MEL-28 melanoma, in the assay on RXF 393 renal, in the assay with HT29 colon, in the assay on SW-620 colon and with ACHN renal was over 100 µM each time. Moreover, the TGI in the assay with HS 578T breast, in the assay on TK-10 renal and in the assay on OVCAR-8 ovarian was over 100 µM in each case.

For the molecule `O=P(O)(O)OP(=O)(O)O`, the TGI with KM12 colon, with SK-MEL-28 melanoma, with RXF 393 renal, with HT29 colon, in the assay with SW-620 colon and in the assay with ACHN renal was over 100 µM throughout. Also, the TGI in the assay on HS 578T breast, with TK-10 renal, in the assay on OVCAR-8 ovarian and with SK-MEL-2 melanoma was over 100 µM in each case.

For `COC(=O)c1c(O)ccc2c1c1c(n2Cc2ccccn2)C(=O)c2ccccc2C1`, the TGI with KM12 colon, with SK-MEL-28 melanoma, in the assay with RXF 393 renal, in the assay with HT29 colon, in the assay on SW-620 colon and in the assay with HS 578T breast was over 100 µM throughout. The TGI in the assay on TK-10 renal, in the assay on OVCAR-8 ovarian and in the assay on SK-MEL-2 melanoma was over 100 µM throughout.

`Fc1cc(C2=C[C@H](c3ccc4c(c3)OCO4)NC(=S)N2)c(Cl)cc1Cl`: the TGI with KM12 colon, in the assay with SK-MEL-28 melanoma, in the assay with RXF 393 renal, in the assay with HT29 colon, with SW-620 colon and in the assay with ACHN renal was over 100 µM throughout. Besides, the TGI in the assay with HS 578T breast is over 100 µM; in the assay with TK-10 renal, 96.4 µM; in the assay with OVCAR-8 ovarian it was over 100 µM; in the assay with SK-MEL-2 melanoma it was 62.7 µM.

As to `Clc1ccc(NCc2nnc(COc3ccc(OCc4nnc(CNc5ccc(Cl)cc5)o4)c(Cl)c3)o2)cc1`, the TGI is over 100 µM in the assay on KM12 colon; over 100 µM in the assay with SK-MEL-28 melanoma; over 100 µM in the assay on RXF 393 renal; 95.6 µM in the assay with HT29 colon; over 100 µM in the assay with SW-620 colon; over 100 µM in the assay with ACHN renal. Moreover, the TGI in the assay on HS 578T breast, in the assay on TK-10 renal, in the assay with OVCAR-8 ovarian and with SK-MEL-2 melanoma was over 100 µM throughout.

In the case of `CCOC(=O)C(C)OC(=O)c1ccc(C)cc1` (stereo unspecified), the TGI in the assay with KM12 colon, in the assay with SK-MEL-28 melanoma, in the assay on RXF 393 renal, with HT29 colon, in the assay on SW-620 colon and with ACHN renal was over 100 µM throughout. The TGI with TK-10 renal, with OVCAR-8 ovarian and with SK-MEL-2 melanoma was over 100 µM in each case.

Regarding `CN(C)C/C=C(/c1ccc(Br)cc1)c1cccnc1`, the TGI in the assay with KM12 colon was over 100 µM; in the assay on SK-MEL-28 melanoma it was 34.1 µM; in the assay with RXF 393 renal, over 100 µM; in the assay on HT29 colon it was over 100 µM; in the assay with SW-620 colon it was over 100 µM; with ACHN renal it was over 100 µM. The TGI in the assay on HS 578T breast was over 100 µM; with TK-10 renal, over 100 µM; in the assay with OVCAR-8 ovarian it was over 100 µM; in the assay on SK-MEL-2 melanoma, 37.6 µM.

As for `CCCCCCOC(=O)C(N)Cc1ccc(OC)cc1` (stereo unspecified), the TGI with KM12 colon, in the assay with SK-MEL-28 melanoma, with RXF 393 renal, in the assay on HT29 colon, in the assay with SW-620 colon and in the assay with ACHN renal was over 100 µM in each case. For the same molecule, the TGI in the assay on HS 578T breast, in the assay with TK-10 renal, with OVCAR-8 ovarian and in the assay on SK-MEL-2 melanoma was over 100 µM throughout.

For `O=C(N/N=C\c1ccc([N+](=O)[O-])cc1)Nc1ccccc1`, the TGI with KM12 colon, with SK-MEL-28 melanoma, in the assay with RXF 393 renal, with HT29 colon, in the assay on SW-620 colon and with HS 578T breast was over 100 µM in each case. Besides, the TGI with TK-10 renal, in the assay with OVCAR-8 ovarian and with SK-MEL-2 melanoma was over 100 µM each time.

Turning to `NC(CCc1ccccc1)(C(=O)O)c1ccccc1` (stereo unspecified), the TGI in the assay with KM12 colon, in the assay on SK-MEL-28 melanoma, in the assay with RXF 393 renal, with HT29 colon, in the assay on SW-620 colon and in the assay with ACHN renal was over 100 µM throughout. Also, the TGI in the assay on HS 578T breast, in the assay with TK-10 renal, with OVCAR-8 ovarian and with SK-MEL-2 melanoma was over 100 µM in each case.

On to `O=c1oc2c(ccc3occc32)c(N2CCCCC2)c1-c1ccccc1`, for which the TGI in the assay with KM12 colon, with SK-MEL-28 melanoma, in the assay with RXF 393 renal, in the assay on HT29 colon, in the assay with SW-620 colon and in the assay with OVCAR-8 ovarian was over 100 µM each time. Further, the TGI with SK-MEL-2 melanoma is over 100 µM.

For `C[C@H](Nc1ccc(C#N)n(C)c1=O)c1cc2cc(Cl)ccc2[nH]c1=O`, the GI50 with KM12 colon was 38.3 µM; in the assay on SK-MEL-28 melanoma it was 28.5 µM; in the assay on RXF 393 renal, 13.3 µM; in the assay on HT29 colon it was 33.1 µM; in the assay on SW-620 colon, 46.3 µM; in the assay on ACHN renal it was 27 µM. For the same molecule, the GI50 in the assay with HS 578T breast is 13.7 µM; in the assay on TK-10 renal, 37.8 µM; in the assay with OVCAR-8 ovarian, 33.2 µM; with SK-MEL-2 melanoma, 26.7 µM. Further, the TGI in the assay with KM12 colon is over 100 µM; in the assay on SK-MEL-28 melanoma it was over 100 µM; in the assay on RXF 393 renal, 67.7 µM; in the assay with HT29 colon, over 100 µM; in the assay on SW-620 colon it was over 100 µM; in the assay with ACHN renal, over 100 µM. Also, the TGI in the assay with HS 578T breast was over 100 µM; in the assay on TK-10 renal, over 100 µM; in the assay on OVCAR-8 ovarian it was over 100 µM; with SK-MEL-2 melanoma it was 94 µM.

For the molecule `CC(Br)C(=O)c1ccc2cc(Br)c3ccccc3c2c1` (stereo unspecified), the TGI in the assay on KM12 colon stood at 32.5 µM; with SK-MEL-28 melanoma, 34 µM; in the assay on RXF 393 renal, 30.2 µM; in the assay with HT29 colon, 31.8 µM; in the assay with SW-620 colon it was 26.3 µM; in the assay with ACHN renal, 31.4 µM. Further, the TGI with HS 578T breast came out at 62.9 µM; in the assay on TK-10 renal, 33.1 µM; with OVCAR-8 ovarian it was 27.5 µM; in the assay on SK-MEL-2 melanoma it was 26.5 µM.

`NCCCCN`: the TGI with KM12 colon was 38.6 µM; with SK-MEL-28 melanoma it was over 100 µM; in the assay with RXF 393 renal, over 100 µM; in the assay on HT29 colon, over 100 µM; in the assay on SW-620 colon it was over 100 µM; in the assay on ACHN renal, over 100 µM. Also, the TGI in the assay on TK-10 renal, with OVCAR-8 ovarian and in the assay on SK-MEL-2 melanoma was over 100 µM in each case.

In the case of `CCOC(=O)C(=CNC(Cc1c[nH]c2ccccc12)C(=O)OC)C(=O)OCC` (stereo unspecified), the TGI with SK-MEL-28 melanoma, with HT29 colon, in the assay with SW-620 colon, with ACHN renal, in the assay on TK-10 renal and in the assay on OVCAR-8 ovarian was over 100 µM each time. The molecule also gave a TGI in the assay on SK-MEL-2 melanoma of over 100 µM.

Turning to `CC(C)(C)c1ccc(O)c(Br)c1`, the TGI in the assay with KM12 colon, with SK-MEL-28 melanoma, in the assay with RXF 393 renal, in the assay with HT29 colon, with SW-620 colon and with ACHN renal was over 100 µM in each case. Also, the TGI in the assay on HS 578T breast, with TK-10 renal, in the assay with OVCAR-8 ovarian and in the assay on SK-MEL-2 melanoma was over 100 µM each time.

Take `CC(C)(C)OC(=O)N1C(C2=COc3ccccc3O2)=COc2cccnc21`: the TGI is 3.97 µM with KM12 colon; 3.47 µM in the assay on SK-MEL-28 melanoma; 3.06 µM with RXF 393 renal; 5.8 µM with HT29 colon; 4.56 µM in the assay with SW-620 colon; 3.19 µM in the assay on ACHN renal. Besides, the TGI in the assay with HS 578T breast is 19.1 µM; in the assay with TK-10 renal, 7.72 µM; in the assay with OVCAR-8 ovarian it was 4.06 µM; with SK-MEL-2 melanoma, 3.96 µM.

For `O=C(CSc1nc2ccc(Cl)cc2c(=O)n1-c1ccccc1)N=Nc1c(O)[nH]c2ccc(F)cc12`, the TGI with KM12 colon was 11.8 µM; with SK-MEL-28 melanoma, 11.3 µM; in the assay with RXF 393 renal, 4.26 µM; in the assay on HT29 colon, 3.96 µM; in the assay on SW-620 colon it was 5.43 µM; in the assay with ACHN renal, 4.1 µM. The TGI in the assay with HS 578T breast is over 27 µM; in the assay with TK-10 renal, 15.5 µM; in the assay on OVCAR-8 ovarian it was 3.33 µM; with SK-MEL-2 melanoma, 5.3 µM.

With `Cc1cc(N2CCOCC2)nc(N(CCCNc2ccnc3cc(Cl)ccc23)Cc2ccc3c(c2)OCO3)n1`, the GI50 is 1.34 µM in the assay on HT29 colon; 1.44 µM with SW-620 colon; 1.97 µM in the assay on HS 578T breast; 1.85 µM with OVCAR-8 ovarian; 1.26 µM with SK-MEL-2 melanoma. Further, the TGI with HT29 colon was determined as 2.8 µM; with SW-620 colon, 3.05 µM; in the assay with HS 578T breast it was 4.61 µM; in the assay on OVCAR-8 ovarian it was 4.09 µM; in the assay with SK-MEL-2 melanoma it was 2.66 µM.

Turning to `Cc1cc(O)c2c(c1O)C(=O)c1c(O)ccc(O)c1C2=O`, the TGI in the assay with KM12 colon, with RXF 393 renal, with HT29 colon, in the assay with SW-620 colon, with ACHN renal and in the assay with HS 578T breast was over 100 µM throughout. For the same molecule, the TGI in the assay on TK-10 renal, with OVCAR-8 ovarian and in the assay on SK-MEL-2 melanoma was over 100 µM each time.

For `NC(N)=NS(=O)(=O)c1ccc(Nc2c3ccccc3nc3c(C(=O)N4CCN(CCO)CC4)ccc(Cl)c23)cc1`, the TGI in the assay with KM12 colon, with SK-MEL-28 melanoma, in the assay with RXF 393 renal, in the assay with HT29 colon, in the assay with ACHN renal and in the assay on TK-10 renal was over 100 µM each time. Also, the TGI in the assay with OVCAR-8 ovarian and in the assay with SK-MEL-2 melanoma was over 100 µM throughout.

As to `COC1OC(C(=O)CP(=O)(OC)OC)C(OCc2ccccc2)C(OCc2ccccc2)C1OCc1ccccc1` (stereo unspecified), the TGI in the assay with KM12 colon was 36.6 µM and 35.7 µM; with SK-MEL-28 melanoma it was 40 µM and 33.2 µM; in the assay on RXF 393 renal it was 26.3 µM and 29.5 µM; in the assay with HT29 colon, 30.6 µM and 31.7 µM; in the assay on SW-620 colon, > 100 µM and 58 µM; with ACHN renal, 29.4 µM and 29.9 µM. Also, the TGI in the assay on HS 578T breast was 63.4 µM and 74.8 µM; in the assay with TK-10 renal, 30.9 µM and 33.9 µM; in the assay with OVCAR-8 ovarian, 36.8 µM and 44.5 µM; with SK-MEL-2 melanoma, 30.7 µM and 31.3 µM.
